In patent US20250134890A1, “ANTIMALARIAL HEXAHYDROPYRIMIDINE ANALOGUES” (UCB BIOPHARMA SRL, priority 2022, published 2025):
Where a name gives a salt, the structure may show the parent alone.

System: Plasmodium falciparum: 3D7 strain
Assay: P. falciparum 3D7 asexual blood stage assay (SYBR green readout)
Assay type: cell-based
Conditions: Plasmodium falciparum, 3D7, Erythrocyte, 72 h, P. falciparum 3D7 in human erythrocytes, 72 h incubation, SYBR green fluorescence
How it was run: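 3D7-infected erythrocytes (5% haematocrit, 0.5% parasitaemia) were exposed 72 h at 37 °C under 1% O2/3% CO2 to a 20-point titration (50,000-15 nM final, 0.5% DMSO). Parasite DNA was read by SYBR green fluorescence after overnight lysis. Percent inhibition was set against mefloquine and DMSO, and EC50 came from a biphasic two-site fit.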

Structure (SMILES)	IC50
C[C@H]1C[C@@H](N2C(=N)N[C@](C)(c3cccc(-c4ccncc4)c3Cl)CC2=O)CCO1 [Example 39, (6S)-6-[2-Chloro-3-(pyridin-4-yl)-phenyl]-2-imino-6-methyl-3-[(2S,4S)-2-methyltetrahydropyran-4-yl]hexahydropyrimidin-4-one trifluoroacetic acid salt]	269 nM
C[C@H]1C[C@@H](N2C(=N)N[C@](C)(c3cccc(-c4cccc(C#N)c4)c3Cl)CC2=O)CCO1 [Example 40, 3-(2-Chloro-3-{(4S)-2-imino-4-methyl-1-[(2S,4S)-2-methyl-tetrahydropyran-4-yl]-6-oxo-hexahydropyrimidin-4-yl}phenyl)-benzonitrile trifluoroacetic acid salt]	50 nM
C[C@H]1C[C@@H](N2C(=N)N[C@](C)(c3cccc(-c4cncnc4)c3Cl)CC2=O)CCO1 [Example 41, (6S)-6-[2-Chloro-3-(pyrimidin-5-yl)phenyl]-2-imino-6-methyl-3-[(2S,4S)-2-methyltetrahydropyran-4-yl]hexahydropyrimidin-4-one trifluoroacetic acid salt]	145 nM
C[C@H]1C[C@@H](N2C(=N)N[C@](C)(c3cccc(-c4cc(F)ccc4F)c3Cl)CC2=O)CCO1 [Example 42, (6S)-6-[2-Chloro-3-(2,5-difluoro-phenyl)phenyl]-2-imino-6-methyl-3-[(2S,4S)-2-methyltetrahydro-pyran-4-yl]hexahydropyrimidin-4-one trifluoroacetic acid salt]	88 nM
COc1ccc(-c2cccc([C@]3(C)CC(=O)N([C@H]4CCO[C@@H](C)C4)C(=N)N3)c2Cl)cn1 [Example 43, (6S)-6-[2-Chloro-3-(6-methoxy-pyridin-3-yl)phenyl]-2-imino-6-methyl-3-[(2S,4S)-2-methyl-tetrahydropyran-4-yl]hexahydro-pyrimidin-4-one trifluoroacetic acid salt]	94 nM
C[C@H]1C[C@@H](N2C(=N)N[C@](C)(c3cccc(-c4cc(F)cc(F)c4)c3Cl)CC2=O)CCO1 [Example 44, (6S)-6-[2-Chloro-3-(3,5-difluoro-phenyl)phenyl]-2-imino-6-methyl-3-[(2S,4S)-2-methyltetrahydro-pyran-4-yl]hexahydropyrimidin-4-one trifluoroacetic acid salt]	103 nM
C[C@H]1C[C@@H](N2C(=N)N[C@](C)(c3cccc(-c4ccn[nH]4)c3Cl)CC2=O)CCO1 [Example 45, (6S)-6-[2-Chloro-3-(1H-pyrazol-5-yl)phenyl]-2-imino-6-methyl-3-[(2S,4S)-2-methyltetrahydropyran-4-yl]hexahydropyrimidin-4-one trifluoroacetic acid salt]	12 nM
C[C@H]1C[C@@H](N2C(=N)N[C@](C)(c3cccc(-c4ccccc4Cl)c3Cl)CC2=O)CCO1 [Example 46, (6S)-6-[2-Chloro-3-(2-chloro-phenyl)phenyl]-2-imino-6-methyl-3-[(2S,4S)-2-methyltetrahydro-pyran-4-yl]hexahydropyrimidin-4-one trifluoroacetic acid salt]	105 nM
C[C@H]1C[C@@H](N2C(=N)N[C@](C)(c3cccc(-c4c(F)cccc4F)c3Cl)CC2=O)CCO1 [Example 47, (6S)-6-[2-Chloro-3-(2,6-difluoro-phenyl)phenyl]-2-imino-6-methyl-3-[(2S,4S)-2-methyltetrahydro-pyran-4-yl]hexahydropyrimidin-4-one trifluoroacetic acid salt]	44 nM
C[C@H]1C[C@@H](N2C(=N)N[C@](C)(c3cccc(-c4cccc(C(F)(F)F)c4)c3Cl)CC2=O)CCO1 [Example 48, (6S)-6-{2-Chloro-3-[3-(trifluoro-methyl)phenyl]phenyl}-2-imino-6-methyl-3-[(2S,4S)-2-methyl-tetrahydropyran-4-yl]hexahydro-pyrimidin-4-one trifluoroacetic acid salt]	66 nM
